Test results published in patent publication US11518755B2, “Stable solutions of multicyclic antidepressants” (Leyden Technologies B.V., priority 2017, dated 2022).

Assay: Solubility of clozapine in different solvent systems (excess clozapine, shaken 24 hours, HPLC)
Format: physicochemical
Protocol: For clozapine, solutions of 20 mg/mL or more are preferred for oral administration of the solution. For soft gel capsules an even higher concentration is preferable. Therefore, a solubility study for clozapine was performed. An excess of clozapine was weighed in a HPLC vial and 1.0 mL of various solvent systems was added. Following, the mixture was placed on a mechanical shaker for 24 hours at 200 RPM and analysed by HPLC for clozapine content.

For `CN1CCN(C2=Nc3cc(Cl)ccc3Nc3ccccc32)CC1` [Clozapine, 8-Chloro-11-(4-methylpiperazin-1-yl)-5H-dibenzo[b,e][1,4]diazepine], which “clozapine content after 24 hours” value (solvent system: 0.1% acetic acid in water) is on record?
The value was 4.7 mg/mL.

And the “clozapine content after 24 hours” value (solvent system: 1% acetic acid in water)?
The value was 38.1 mg/mL.

And the “clozapine content after 24 hours” value (solvent system: 1% citric acid in water)?
The value was 27.6 mg/mL.

And the “clozapine content after 24 hours” value (solvent system: 5% Transcutol P in PEG400)?
Its value is 91.8 mg/mL.

And the “clozapine content after 24 hours” value (solvent system: 5% acetic acid in water)?
The value was 51.5 mg/mL.

And the “clozapine content after 24 hours” value (solvent system: 5% citric acid in water)?
Its value is 34.2 mg/mL.

And the “clozapine content after 24 hours” value (solvent system: 10% Transcutol P in PEG400)?
The value was 91.3 mg/mL.

What about the “clozapine content after 24 hours” value (solvent system: 10% acetic acid in water) of the same compound?
The value was 59.8 mg/mL.

And the “clozapine content after 24 hours” value (solvent system: 10% citric acid in water)?
The value was 50.7 mg/mL.

And the “clozapine content after 24 hours” value (solvent system: 20% Kolliphor RH40/PEG400 (10:90))?
Its value is 72.8 mg/mL.

And the “clozapine content after 24 hours” value (solvent system: 20% Transcutol P in PEG400)?
Its value is 99.5 mg/mL.

And the “clozapine content after 24 hours” value (solvent system: 20% kolliphor RH40 in water)?
The value was 7.4 mg/mL.

And the “clozapine content after 24 hours” value (solvent system: 40% corn oil in miglyol)?
The value was 8.4 mg/mL.

And the “clozapine content after 24 hours” value (solvent system: 50% solutol in water)?
Its value is 17.8 mg/mL.

And the “clozapine content after 24 hours” value (solvent system: 50% solutol/PEG400 (10:90))?
The value was 81.6 mg/mL.

And the “clozapine content after 24 hours” value (solvent system: 100% Transcutol P)?
The value was 151.3 mg/mL.

And the “clozapine content after 24 hours” value (solvent system: Caprylocaproyl macrogol-8 glycerides (Labrasol ®))?
Its value is 34.0 mg/mL.

And the “clozapine content after 24 hours” value (solvent system: Citrate buffer pH 3.4)?
Its value is 57.2 mg/mL.

What about the “clozapine content after 24 hours” value (solvent system: Citrate buffer pH 3.7) of the same compound?
The value was 44.0 mg/mL.

And the “clozapine content after 24 hours” value (solvent system: Citrate buffer pH 4.0)?
The value was 34.3 mg/mL.

What about the “clozapine content after 24 hours” value (solvent system: Citrate buffer pH 4.7) of the same compound?
Its value is 19.9 mg/mL.

And the “clozapine content after 24 hours” value (solvent system: Corn oil)?
Its value is 5.1 mg/mL.

And the “clozapine content after 24 hours” value (solvent system: N,N′-dimethyl acetamide (DMA))?
Its value is 106.8 mg/mL.

And the “clozapine content after 24 hours” value (solvent system: N-methyl-2-pyrrolydone (NMP))?
The value was 409.7 mg/mL.

And the “clozapine content after 24 hours” value (solvent system: PEG200)?
The value was 81.8 mg/mL.

What about the “clozapine content after 24 hours” value (solvent system: PEG400) of the same compound?
The value was 77.0 mg/mL.

And the “clozapine content after 24 hours” value (solvent system: PEG400/34 mmol Citrate buffer, 20:80 (V/V))?
The value was 52.7 mg/mL.

And the “clozapine content after 24 hours” value (solvent system: PEG400/34 mmol Citrate buffer, 40:60 (V/V))?
The value was 52.3 mg/mL.

What about the “clozapine content after 24 hours” value (solvent system: PEG400/34 mmol Citrate buffer, 60:40 (V/V)) of the same compound?
Its value is 47.6 mg/mL.

And the “clozapine content after 24 hours” value (solvent system: PEG400/34 mmol Citrate buffer, 80:20 (V/V))?
Its value is 49.8 mg/mL.

And the “clozapine content after 24 hours” value (solvent system: PEG400/Citrate buffer pH 4.0, 50:50 (V/V))?
The value was 33.4 mg/mL.

And the “clozapine content after 24 hours” value (solvent system: PEG400/Citrate buffer pH 4.0, 60:40 (V/V))?
The value was 29.6 mg/mL.

And the “clozapine content after 24 hours” value (solvent system: PEG400/Citrate buffer pH 4.0, 70:30 (V/V))?
Its value is 32.1 mg/mL.

What about the “clozapine content after 24 hours” value (solvent system: PEG400/Citrate buffer pH 4.0, 80:20 (V/V)) of the same compound?
Its value is 44.6 mg/mL.

What about the “clozapine content after 24 hours” value (solvent system: PEG400/Citrate buffer pH 4.0, 90:10 (V/V)) of the same compound?
The value was 56.2 mg/mL.

What about the “clozapine content after 24 hours” value (solvent system: PEG400/water (50:50)) of the same compound?
Its value is 2.3 mg/mL.

What about the “clozapine content after 24 hours” value (solvent system: PEG400/water (60:40)) of the same compound?
The value was 6.5 mg/mL.

What about the “clozapine content after 24 hours” value (solvent system: PEG400/water (70:30)) of the same compound?
Its value is 14.0 mg/mL.

What about the “clozapine content after 24 hours” value (solvent system: PEG400/water (80:20)) of the same compound?
Its value is 31.1 mg/mL.

And the “clozapine content after 24 hours” value (solvent system: PEG600/water (90:10))?
Its value is 65.2 mg/mL.

What about the “clozapine content after 24 hours” value (solvent system: ethanol) of the same compound?
Its value is 33.9 mg/mL.

And the “clozapine content after 24 hours” value (solvent system: glycerol)?
The value was 0.5 mg/mL.

What about the “clozapine content after 24 hours” value (solvent system: miglyol) of the same compound?
The value was 10.3 mg/mL.

And the “clozapine content after 24 hours” value (solvent system: water)?
The value was 0.3 mg/mL.
